Here are results for 31 compounds from patent US9073940B2, “Tricyclic pyrazol amine derivatives” (MERCK SERONO SA, priority 2009, dated 2015).

Structures can show the parent of a compound that is named as a salt.

The test system of this assay is 4 PI3K isoforms (Human recombinant GST-PI3K). The assay is described as follows: PI3K scintillation proximity assay, best IC50 obtained with the four isoforms (alpha, beta, delta, gamma). Type of assay: biochemical. As to conditions: best IC50 obtained with the four isoforms of PI3K; read-out: Best potency measured on the 4 PI3K isoforms. Background: In a scintillation proximity assay essentially only radioactivity close to the scintillant gives light.
For `O=C(c1nn(C2CCCN(CCO)C2)c2c1CS(=O)(=O)c1ccccc1-2)N1CCOCC1` (stereo not shown) [Example 134, 2-{3-[3-(Morpholin-4-ylcarbonyl)-5,5-dioxidothiochromeno[4,3-c]pyrazol-1 (4H)-yl]piperidin-1-yl}ethanol], the IC50 came to 815 nM.
As to `O=C(c1nn(-c2ccc(C3(CN4CCOCC4)CC3)cc2)c2c1CS(=O)(=O)c1ccccc1-2)N1CCOCC1` [Example 462, 3-(Morpholin-4-ylcarbonyl)-1-{4-[1-(morpholin-4-ylmethyl)cyclopropyl]phenyl}-1,4-dihydrothiochromeno[4,3-c]pyrazole 5,5-dioxide], the IC50 was found to be 995 nM.
The same measure for `O=C(c1nn(C2CN3CCC2CC3)c2c1CS(=O)(=O)c1ccccc1-2)N1CCOCC1` (stereo not shown) [Example 393]: 10200 nM; for `Cn1nc(C(=O)N2CCOCC2)c2c1-c1cc([N+](=O)[O-])ccc1S(=O)(=O)C2` [Example 35, 1-methyl-3-(morpholin-4-ylcarbonyl)-8-nitro-1,4-dihydrothiochromeno[4,3-c]pyrazole 5,5-dioxide]: 2770 nM.
As to `Cc1cccc2c1S(=O)(=O)Cc1c(C(=O)N3CCOCC3)nn([C@H]3CCCN(CCN4CCOCC4)C3)c1-2` (stereo in doubt) [Example 471, 6-methyl-3-(morpholin-4-ylcarbonyl)-1-[1-(2-morpholin-4-ylethyl)piperidin-3-yl]-1,4-dihydrothiochromeno[4,3-c]pyrazole 5,5-dioxide], the IC50 came to 49 nM.
The same measure for `O=C(c1nn(C2CCN(CCC3CCOCC3)C2)c2c1CS(=O)(=O)c1c(F)cccc1-2)N1CCOCC1` (stereo not shown) [Example 302, 6-Fluoro-3-(morpholin-4-ylcarbonyl)-1-{1-[2-(tetrahydro-2H-pyran-4-yl)ethyl]pyrrolidin-3-yl}-1,4-dihydrothiochromeno[4,3-c]pyrazole 5,5-dioxide]: 21 nM.
On to `CN(C)S(=O)(=O)c1cccc(-n2nc(C(=O)N3CCOCC3)c3c2-c2ccccc2S(=O)(=O)C3)c1` [Example 207, N,N-Dimethvl-3-[3-(morpholin-4-ylcarbonyl)-5,5-dioxidothiochromeno[4,3-c]pyrazol-1 (4H)-yl]benzenesulfonamide], for which the IC50 amounted to 641 nM.
As to `O=C(c1nn(-c2ccc(-c3ccccc3)cc2)c2c1CS(=O)(=O)c1ccccc1-2)N1CCOCC1` [Example 328], the IC50 turned out to be 10300 nM.
In the case of `O=C(c1nn([C@H]2CCCN(c3ccncc3)C2)c2c1CS(=O)(=O)c1ccccc1-2)N1CCOCC1` (stereo in doubt) [Example 468, 3-(morpholin-4-ylcarbonyl)-1-[1-pyridin-4-ylpiperidin-3-yl]-1,4-dihydrothiochromeno[4,3-c]pyrazole 5,5-dioxide], the IC50 worked out at 133 nM.
With `CC(=O)Nc1nc2c(s1)S(=O)(=O)Cc1c(C(=O)N3CCOCC3)nn(C3CCOCC3)c1-2` [Example 289, N-[3-(Morpholin-4-ylcarbonyl)-5,5-dioxido-1-(tetrahydro-2H-pyran-4-yl)-1,4-dihydropyrazolo[3′,4′:4,5]thiopyrano[3,2-d][1,3]thiazol-7-yl]acetamide], the IC50 stood at 284 nM.
On to `O=C(c1nn(-c2ccccc2)c2c1C(Cc1ccccc1)S(=O)(=O)c1ccccc1-2)N1CCOCC1` (stereo not shown) [Example 57, 4-benzyl-3-(morpholin-4-ylcarbonyl)-1-phenyl-1,4-dihydrothiochromeno[4,3-c]pyrazole 5,5-dioxide], for which the IC50 came to 2480 nM.
With `CS(=O)(=O)c1cccc(-n2nc(C(=O)N3CCOCC3)c3c2-c2ccccc2S(=O)(=O)C3)c1` [Example 138, 1-[3-(Methylsulfonyl)phenyl]-3-(morpholin-4-ylcarbonyl)-1,4-dihydrothiochromeno[4,3-c]pyrazole 5,5-dioxide], the IC50 is 2560 nM.
Under `O=C(c1nn([C@@H]2CCCN(CCC3CCOCC3)C2)c2c1CS(=O)(=O)c1c(F)cccc1-2)N1CCOCC1` (single isomer, unassigned) [Example 343, 6-fluoro-3-(morpholin-4-ylcarbonyl)-1-{1-[2-(tetrahydro-2H-pyran-4-yl)ethyl]piperidin-3-yl}-1,4-dihydrothiochromeno[4,3-c]pyrazole 5,5-dioxide hydrochloride salt] stands 1920 nM; under `COc1ccc2c(c1)-c1c(c(C(=O)N3CCOCC3)nn1C1CCCN(CCN3CCOCC3)C1)CS2(=O)=O` (stereo not shown) [Example 453, 8-methoxy-3-(morpholin-4-ylcarbonyl)-1-[1-(2-morpholin-4-ylethyl)piperidin-3-yl]-1,4-dihydrothiochromeno[4,3-c]pyrazole 5,5-dioxide], 28 nM; under `CC1COCCN1CCN1CCC[C@H](n2nc(C(=O)N3CCOCC3)c3c2-c2ccccc2S(=O)(=O)C3)C1` (single isomer, unassigned) [Example 377, 1-{1-[2-(3-methylmorpholin-4-yl)ethyl]piperidin-3-yl}-3-(morpholin-4-ylcarbonyl)-1,4-dihydrothiochromeno[4,3-c]pyrazole 5,5-dioxide], 101 nM.
With `O=C(c1nn(C2CCCN(CCF)C2)c2c1CS(=O)(=O)c1ccccc1-2)N1CCOCC1` (single isomer, unassigned) [Example 221, 1-[1-(2-fluoroethyl)piperidin-3-yl]-3-(morpholin-4-ylcarbonyl)-1,4-dihydrothiochromeno[4,3-c]pyrazole 5,5-dioxide], the IC50 worked out at 320 nM.
Regarding `O=C(c1nn(C2CCCN(CCc3ccccc3)C2)c2c1CS(=O)(=O)c1ccccc1-2)N1CCOCC1` (stereo not shown) [Example 219, 3-(Morpholin-4-ylcarbonyl)-1-[1-(2-phenylethyl)piperidin-3-yl]-1,4-dihydrothiochromeno[4,3-c]pyrazole 5,5-dioxide], the IC50 worked out at 711 nM.
Consider `O=C(c1nn(-c2ccccc2)c2c1CS(=O)(=O)c1nccn1-2)N1CCOCC1` [Example 485], for which the IC50 was 477 nM.
As for `Cc1ccccc1-c1cccc(-n2nc(C(=O)N3CCOCC3)c3c2-c2ccccc2S(=O)(=O)C3)c1` [Example 160, 1-(2′-Methylbiphenyl-3-yl)-3-(morpholin-4-ylcarbonyl)-1,4-dihydrothiochromeno[4,3-c]pyrazole 5,5-dioxide], the IC50 worked out at 1080 nM.
For the compound `O=C(c1nn(-c2cccc(-c3ncon3)c2)c2c1CS(=O)(=O)c1ccccc1-2)N1CCOCC1` [Example 324], the IC50 came to 6690 nM.
For `O=C(c1nn(-c2ccc(CN3CCCCC3)cc2)c2c1CS(=O)(=O)c1ccccc1-2)N1CCOCC1` [Example 169, 3-(Morpholin-4-ylcarbonyl)-1-[4-(piperidin-1-ylmethyl)phenyl]-1,4-dihydrothiochromeno[4,3-c]pyrazole 5,5-dioxide], the IC50 worked out at 110 nM.
For `O=C(c1nn(-c2ccccc2)c2c1CS(=O)(=O)c1ccc(F)cc1-2)N1CCOCC1` [Example 17, 8-fluoro-3-(morpholin-4-ylcarbonyl)-1-phenyl-1,4-dihydrothiochromeno[4,3-c]pyrazole 5,5-dioxide], the IC50 is 987 nM.
The same measure for `COc1ccc2c(c1)S(=O)(=O)Cc1c(C(=O)N3CCOCC3)nn([C@H]3CCCN(CCN4CCOCC4)C3)c1-2` (single isomer, unassigned) [Example 383, 7-methoxy-3-(morpholin-4-ylcarbonyl)-1-[1-(2-morpholin-4-ylethyl)piperidin-3-yl]-1,4-dihydrothiochromeno[4,3-c]pyrazole 5,5-dioxide]: 24 nM; for `O=C(c1nn([C@H]2CCCN(CCN3CC[C@@H](F)C3)C2)c2c1CS(=O)(=O)c1ccccc1-2)N1CCOCC1` (single isomer, unassigned) [Example 364, 1-(1-{2-[3-fluoropyrrolidin-1-yl]ethyl}piperidin-3-yl)-3-(morpholin-4-ylcarbonyl)-1,4-dihydrothiochromeno[4,3-c]pyrazole 5,5-dioxide]: 14 nM; for `O=C(c1nn(C2CCCN(CC3CCOC3)C2)c2c1CS(=O)(=O)c1c(F)cccc1-2)N1CCOCC1` (stereo not shown) [Example 404, 6-Fluoro-3-(morpholin-4-ylcarbonyl)-1-[1-(tetrahydrofuran-3-ylmethyl)piperidin-3-yl]-1,4-dihydrothiochromeno[4,3-c]pyrazole 5,5-dioxide]: 21 nM.
For `COCCN1CCC[C@H](n2nc(C(=O)N3CCOCC3)c3c2-c2ccc(OC)cc2S(=O)(=O)C3)C1` (single isomer, unassigned) [Example 394, 7-methoxy-1-[1-(2-methoxyethyl)piperidin-3-yl]-3-(morpholin-4-ylcarbonyl)-1,4-dihydrothiochromeno[4,3-c]pyrazole 5,5-dioxide], the IC50 is 93 nM.
Consider `NCCCC1c2c(C(=O)N3CCOCC3)nn(-c3ccccc3)c2-c2ccccc2S1(=O)=O` (stereo not shown) [Example 140, 3-[3-(Morpholin-4-ylcarbonyl)-5,5-dioxido-1-phenyl-1,4-dihydrothiochromeno[4,3-c]pyrazol-4-yl]propan-1-amine], for which the IC50 was found to be 4520 nM.
Take `O=C(c1nn(-c2cccc(CN3CCS(=O)(=O)CC3)c2)c2c1CS(=O)(=O)c1ccccc1-2)N1CCOCC1` [Example 247, 1-{3-[(1,1-Dioxidothiomorpholin-4-yl)methyl]phenyl}-3-(morpholin-4-ylcarbonyl)-1,4-dihydrothiochromeno[4,3-c]pyrazole 5,5-dioxide]: the IC50 was found to be 639 nM.
For `CN(C)CCn1nc(C(=O)N2CCOCC2)c2c1-c1ccccc1S(=O)(=O)C2` [Example 42, N,N-dimethyl-2-[3-(morpholin-4-ylcarbonyl)-5,5-dioxidothiochromeno[4,3-c]pyrazol-1(4H)-yl]ethanamine], the IC50 was 1500 nM.
Under `O=C(c1nn(C2CCCN(CCN3CCOCC3)C2)c2c1CS(=O)(=O)c1c(Cl)cccc1-2)N1CCOCC1` (stereo not shown) [Example 309, 6-Chloro-3-(morpholin-4-ylcarbonyl)-1-[1-(2-morpholin-4-ylethyl)piperidin-3-yl]-1,4-dihydrothiochromeno[4,3-c]pyrazole 5,5-dioxide] stands 120 nM; under “3-(Morpholin-4-ylcarbonyl)-1-phenyl-4H- imidazo[5,1-c][1,4]benzothiazine 5,5-dioxide [Example 486]”, 2740 nM.
